The target of the experiment is T1, α-glycosidase (intestinal α-glycosidase; α-glucosidase).
T1 construct: gene Si; crude native extract: supernatant of sonicated rat intestinal acetone powder in saline (100:1 w/v); not purified, isoenzyme not identified
Description: colorimetric p-nitrophenyl release, 96-well plate. In kind it is biochemical. The conditions noted are these: 5 mM p-nitrophenyl-α-D-glucopyranoside, 100 mM phosphate, pH 6.8, DMSO, 5 min preincubation; crude rat intestinal extract. From the text:
colorimetric p-nitrophenyl release, 96-well plate on α-glycosidase (intestinal α-glycosidase; α-glucosidase)
On to `COc1c(O)cc2oc(-c3ccc(O)c(O)c3)c(O)c(=O)c2c1O` [compound 6, patuletin], for which 743.1 ± 1.32 µM corresponded to half-maximal inhibition (IC50).

In the case of `COc1cc(O)c2c(c1)OC(c1ccc(O)cc1)C(O)C2=O` (stereo not shown) [compound 3, 3,5,4′-trihydroxy,7-methoxy-flavanone], half-maximal inhibition (IC50) was put at 790 ± 2.31 µM.

As for `O=C1C[C@@H](c2ccc(O)cc2)Oc2cc(O)cc(O)c21` [compound 2, naringenin], half-maximal inhibition (IC50) required 754.2 ± 1.76 µM.

Turning to `COc1cc(O)c2c(c1)O[C@H](c1ccc(O)cc1)CC2=O` [compound 4, sakuranetin], the IC50 (as a rule, the midpoint of a concentration-inhibition curve) worked out at 287.3 ± 2.09 µM.

On to `COc1cc(-c2oc3cc(O)c(OC)c(O)c3c(=O)c2O)ccc1O` [compound 5, spinacetin], for which half-maximal inhibition (IC50) was put at 826.4 ± 1.87 µM.

As for `O=C1c2c(O)cc(O)cc2O[C@H](c2ccc(O)cc2)[C@H]1O` [compound 1, 3,5,7,4′-tetrahydroxy-flavanone], the IC50 came to 183.2 ± 1.22 µM.

`C[C@H]1O[C@H](O[C@H]2[C@H](O)[C@@H](O)[C@@H](O[C@H]3[C@H](O)[C@@H](O)C(O)O[C@@H]3CO)O[C@@H]2CO)[C@H](O)[C@@H](O)[C@@H]1N[C@H]1C=C(CO)[C@@H](O)[C@H](O)[C@H]1O` (stereo partly shown) [acarbose, reference compound]: half-maximal inhibition (IC50) was put at 841 ± 1.34 µM.

Source of the values: PMC9481312, “In Vitro α-Glycosidase Inhibition and In Silico Studies of Flavonoids Isolated from Pistacia integerrima Stew ex Brandis” (BioMed Research International, 2022).
